Measurements: article PMC5623053 (Frontiers in Molecular Biosciences, 2017)
“Also recorded” adds a separate entry of the source. Bridges are numbered along the chain shown (N, C = ends).

B1: G7-18NATE (cyclo-(CH2CO-WFEGYDNTFPC)-amide) (peptide)
peptide: {CH2CO}-WFEGYDNTFPC-NH2
modifications: thioether N-11
notes: cyclic peptide developed via phage display against the Grb7-SH2 domain; Purity >95% by LC-MS; source: synthetic peptide (standard Fmoc-chemistry), bought: Purar Chemicals (Australia)

Key:
Grb2-SH2 WT = target: T1, Grb2-SH2 WT (Homo sapiens, UniProt P62993); experiment: SPR binding of G7-18NATE to immobilized GST-Grb2-SH2 WT
T1 construct: Grb7-SH2 (residues 415-532) and Grb2-SH2 (residues 58-160) were incorporated into the pGex2T plasmid; made in house; host or cells: E. coli BL21(DE3)pLysS

Grb2-SH2 S90R = target: T2, Grb2-SH2 S90R (Homo sapiens, UniProt P62993, S90R); experiment: SPR binding of G7-18NATE to immobilized GST-Grb2-SH2 S90R mutant
T2 construct: Grb7-SH2 (residues 415-532) and Grb2-SH2 (residues 58-160) were incorporated into the pGex2T plasmid; made in house; host or cells: E. coli BL21(DE3)pLysS

SH2D2A = details: 79 SH2 domains, 100 μg peptide in PBST, duplicate spots; not quantitative
[1] = system: other SH2 domains in the microarray with leucine present at this position; details: 79 SH2 domains, 100 μg peptide in PBST; SH2 domains other than Grb7 and SH2D2A with leucine at βD6
Grb7-SH2 domain = system: Grb7-SH2 domain; parameters: method as in 3 sources, one per row (each row's own in cited_ref): ref Ambaye et al., 2011a; Watson et al., 2017 ||| ref Gunzburg et al., 2012 ||| ref Janes et al., 1997; Gunzburg et al., 2012; details: ref Janes et al., 1997; Gunzburg et al., 2012; cited from earlier work
Text: Grb7 is a signaling adaptor protein that has been specifically targeted through th ...

Grb2 / HER3 = system: Grb2 / HER3; parameters: method as in Pero et al., 2002; details: ref Pero et al., 2002; cited from earlier work
SH2 domain of Grb10 = details: SPR; ref Gunzburg et al., 2012; cited from earlier work
SH2 domain of Grb14 = details: SPR; ref Gunzburg et al., 2012; cited from earlier work
Grb10 = details: 79 SH2 domains, 100 μg peptide in PBST, duplicate spots; not quantitative
Procedure: (§1) The microarray was conducted by the Protein Array and Analysis Core at the MD Anderson Cancer Center (University of Texas, USA) using standard protocols. […] Each SH2 domain was spotted in duplicate.

Grb14 = details: 79 SH2 domains, 100 μg peptide in PBST, duplicate spots; not quantitative
Procedure: as §1

Grb2 = details: 79 SH2 domains, 100 μg peptide in PBST, duplicate spots; not quantitative
Procedure: as §1

[2] = target: T3, Grb7-SH2 R462S, GST fusion (residues 415-532) (UniProt Q14451 415-532, R462S); experiment: SPR; Biacore T100, CM5 chip; GST-SH2 fusion captured by amine-coupled anti-GST antibody, GST alone on the reference cell; G7-18NATE injected 60 s at 30 μL/min in 150 mM NaPO4, 150 mM NaCl, 1 mM DTT, pH 7.4; equilibrium responses fitted by a single-site binding model; details: both partners purified
T3 construct: Made by site-directed mutagenesis of the wild-type construct; primers in Supplementary Material; also called R462S Grb7-SH2; R462S mutant
T3 sequence (Q14451 415-532 R462S): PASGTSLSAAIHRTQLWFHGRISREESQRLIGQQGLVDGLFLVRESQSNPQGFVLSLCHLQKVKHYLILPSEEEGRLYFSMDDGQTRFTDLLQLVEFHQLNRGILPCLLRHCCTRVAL

[3] = target: T4, Grb7-SH2 wild-type, GST fusion (residues 415-532) (UniProt Q14451 415-532); experiment: as above; details: both partners purified
T4 construct: also called Grb7-SH2 WT; WT Grb7-SH2
T4 sequence (Q14451 415-532): as the sequence (Q14451 415-532 R462S) above, with S48R counted along it

[4] = target: T3, Grb7-SH2 R462S, GST fusion (residues …); experiment: as above; details: both partners purified; remark: listed apart in the source
[5] = target: T5, Grb2-SH2 wild-type, GST fusion (residues 58-160) (UniProt P62993 58-160); experiment: as above; details: both partners purified
T5 construct: Grb2, SH2 domain, residues 58-160, in pGex2T; also called Grb2-SH2 WT; WT Grb2-SH2

[6] = SPR, Biacore T100, single-site binding model, errors are standard error of the fits
[7] = in words, injection of G7-18NATE over the chip surface

Molecule | Rmax (Grb2-SH2 WT; [6]) [RU] | SPR binding response (Grb2-SH2 WT; [7]) | Rmax (Grb2-SH2 S90R; [6]) [RU] | SPR binding response (Grb2-SH2 S90R; [7]) | microarray fluorescence / binding (SH2D2A) | microarray binding [1] | specificity for Grb7-SH2 over Grb2, Grb10 and Grb14 SH2 domains (Grb7-SH2 domain) | effect on Grb2/HER3 interaction (Grb2 / HER3) | binding to Grb10 SH2 domain (SH2 domain of Grb10) | binding to Grb14 SH2 domain (SH2 domain of Grb14) | microarray fluorescence (Grb10) | microarray fluorescence (Grb14) | microarray fluorescence (Grb2) | Kd [2] [µM] | Kd [3] [µM] | Kd [4] [µM] | Kd [5] [µM]
C[C@@H](O)[C@@H]1NC(=O)[C@H](CC(N)=O)NC(=O)[C@H](CC(=O)O)NC(=O)[C@H](Cc2ccc(O)cc2)NC(=O)CNC(=O)[C@H](CCC(=O)O)NC(=O)[C@H](Cc2ccccc2)NC(=O)[C@H](Cc2c[nH]c3ccccc23)NC(=O)CSC[C@@H](C(N)=O)NC(=O)[C@@H]2CCCN2C(=O)[C@H](Cc2ccccc2)NC1=O [G7-18NATE] | 14.2 ± 0.9 | only a low binding response | 41.0 ± 3 | low responses, though slightly higher than seen for Grb2-SH2 WT; also recorded: minimal binding | detectable binding | no ability to be bound | specific for the Grb7-SH2 domain over the closely related SH2 domains of Grb2, Grb10, and Grb14 | no effect | minimal binding | minimal binding |  |  |  |  |  |  | 
(cyclo-(CH2CO-WFEGYDNTFPC-RRMKWKKK(Biotin))-amide) (sidechain bridge or staple) [G7-18NATE-PB] |  |  |  |  | Fluorescence was observed, although at much lower intensity |  |  |  |  |  | no observation of fluorescence | no observation of fluorescence | no observation of fluorescence |  |  |  | 
B1 |  |  |  |  |  |  |  |  |  |  |  |  |  | 7.97 | 2.43 | 7.98 | > 125
